Laboratory results from US11254668B2, “Pyrazolo[1,5-A]pyrazin-4-yl and related derivatives” (Pfizer Inc., priority 2017, dated 2022).

How the values were obtained:
Format in all cases: biochemical
[1] = molecular target: TYK2 (Homo sapiens (Human), UniProt P29597); test: JAK Caliper Enzyme Assay at 1 mM ATP, TYK2
Summary of the method: (§1)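 Inhibition is measured as reduced phosphorylation of a synthetic peptide by the recombinant human kinase domain at 1 mM ATP. Conditions give 20–30% conversion at room temperature before EDTA quench, and on-chip separation of labelled substrate and product yields percent conversion for dose–response plotting.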

[2] = molecular target: JAK1 (Homo sapiens (Human), UniProt P23458); test: JAK Caliper Enzyme Assay at 1 mM ATP, JAK1
Summary of the method: (§2)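 Recombinant human kinase domains phosphorylate a fluorescent synthetic peptide at 1 mM ATP, room temperature, with enzyme and time tuned for 20-30% conversion; EDTA-stopped. Product/substrate separated by microfluidic mobility shift; percent effect versus DMSO and positive controls fitted to IC50 (nM).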

[3] = molecular target: JAK2 (Homo sapiens (Human), UniProt O60674); test: JAK Caliper Enzyme Assay at 1 mM ATP, JAK2
Summary of the method: as §1

[4] = molecular target: JAK3 (Homo sapiens (Human), UniProt P52333); test: JAK Caliper Enzyme Assay at 1 mM ATP, JAK3
Summary of the method: as §2

Sequence of TYK2 (P29597 897-1176): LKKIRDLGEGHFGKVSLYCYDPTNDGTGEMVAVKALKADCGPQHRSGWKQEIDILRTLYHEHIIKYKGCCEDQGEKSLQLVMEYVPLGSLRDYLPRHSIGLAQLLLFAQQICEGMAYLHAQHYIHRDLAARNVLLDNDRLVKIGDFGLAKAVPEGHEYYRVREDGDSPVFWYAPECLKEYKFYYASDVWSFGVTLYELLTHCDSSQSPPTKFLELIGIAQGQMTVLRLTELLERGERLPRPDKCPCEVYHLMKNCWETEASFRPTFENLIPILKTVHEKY
Sequence of JAK3 (P52333 822-1111): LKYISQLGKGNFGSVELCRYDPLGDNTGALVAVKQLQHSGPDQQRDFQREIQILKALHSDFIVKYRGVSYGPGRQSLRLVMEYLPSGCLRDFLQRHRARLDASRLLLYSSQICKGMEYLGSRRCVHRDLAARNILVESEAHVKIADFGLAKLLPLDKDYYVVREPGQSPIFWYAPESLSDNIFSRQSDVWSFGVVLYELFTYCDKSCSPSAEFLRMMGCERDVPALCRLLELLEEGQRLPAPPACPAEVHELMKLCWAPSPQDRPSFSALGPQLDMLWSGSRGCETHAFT
Sequence of JAK1 (P23458 875-1153): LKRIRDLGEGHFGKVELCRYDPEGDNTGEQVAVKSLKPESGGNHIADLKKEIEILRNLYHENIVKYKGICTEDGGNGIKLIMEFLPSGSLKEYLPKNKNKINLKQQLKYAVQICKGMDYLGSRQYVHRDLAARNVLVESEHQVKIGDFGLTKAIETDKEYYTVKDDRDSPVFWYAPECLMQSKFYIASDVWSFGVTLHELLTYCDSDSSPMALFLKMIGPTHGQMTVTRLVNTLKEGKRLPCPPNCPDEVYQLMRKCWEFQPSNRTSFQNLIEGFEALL
Sequence of JAK2 (O60674 849-1124): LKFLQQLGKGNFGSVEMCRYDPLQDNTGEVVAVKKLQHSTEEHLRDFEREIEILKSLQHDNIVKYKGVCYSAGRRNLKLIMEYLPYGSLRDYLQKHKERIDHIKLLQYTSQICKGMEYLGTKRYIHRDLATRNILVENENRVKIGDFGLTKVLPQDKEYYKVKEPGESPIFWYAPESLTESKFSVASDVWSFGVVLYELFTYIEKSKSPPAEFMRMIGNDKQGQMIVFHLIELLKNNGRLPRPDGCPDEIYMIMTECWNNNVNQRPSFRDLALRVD

SMILES | IC50 [1] | IC50 [2] | IC50 [3] | IC50 [4]
N#CC[C@]1(n2ncc(-c3cc(-c4cc(CO)[nH]n4)cc4ncccc34)n2)C[C@H](C#N)C1 [Example 308, trans-3-(cyanomethyl)-3-(4-{7-[5-(hydroxymethyl)-1H-pyrazol-3-yl]quinolin-5-yl}-2H-1,2,3-triazol-2-yl)cyclobutanecarbonitrile] | 18 nM | 719 nM | 131 nM | > 10000 nM
Cn1nc(-c2cc(-c3cnn([C@]4(CC#N)C[C@@H](C#N)C4)n3)c3cccnc3c2)cc1CO [Example 309, trans-3-(cyanomethyl)-3-(4-{7-[5-(hydroxymethyl)-1-methyl-1H-pyrazol-3-yl]quinolin-5-yl}-2H-1,2,3-triazol-2-yl)cyclobutanecarbonitrile] | 29 nM | 1880 nM | 163 nM | > 10000 nM
Cn1nccc1-c1cc(-c2cnn(C3(CC#N)CN(S(C)(=O)=O)C3)n2)c2cccnc2c1 [Example 310, [3-{4-[7-(1-methyl-1H-pyrazol-5-yl)quinolin-5-yl]-2H-1,2,3-triazol-2-yl}-1-(methylsulfonyl)azetidin-3-yl]acetonitrile] | 725 nM | > 10000 nM | > 10000 nM | > 10000 nM
Cn1ccc(-c2cc(-c3cnn(C4(CC#N)CN(S(C)(=O)=O)C4)n3)c3cccnc3c2)n1 [Example 311, [3-{4-[7-(1-methyl-1H-pyrazol-3-yl)quinolin-5-yl]-2H-1,2,3-triazol-2-yl}-1-(methylsulfonyl)azetidin-3-yl]acetonitrile] | 25 nM | 2260 nM | 287 nM | > 10000 nM
Cn1ccc(-c2cc(-c3cnn([C@]4(CC#N)C[C@@H](C#N)C4)n3)c3cccnc3c2)n1 [Example 312, trans-3-(cyanomethyl)-3-{4-[7-(1-methyl-1H-pyrazol-3-yl)quinolin-5-yl]-2H-1,2,3-triazol-2-yl}cyclobutanecarbonitrile] | 31 nM | 1640 nM | 246 nM | > 10000 nM
Cn1ccc(-c2cc(-c3cnn([C@]4(CC#N)C[C@H](C#N)C4)n3)c3cccnc3c2)n1 [Example 313, cis-3-(cyanomethyl)-3-{4-[7-(1-methyl-1H-pyrazol-3-yl)quinolin-5-yl]-2H-1,2,3-triazol-2-yl}cyclobutanecarbonitrile] | 25 nM | 486 nM | 79 nM | 5470 nM
CS(=O)(=O)N1CC(CC#N)(n2ncc(-c3cc(-c4cn[nH]c4)cc4ncccc34)n2)C1 [Example 314, [1-(methylsulfonyl)-3-{4-[7-(1H-pyrazol-4-yl)quinolin-5-yl]-2H-1,2,3-triazol-2-yl}azetidin-3-yl]acetonitrile] | 32 nM | 1150 nM | 390 nM | > 10000 nM
N#CC[C@]1(n2ncc(-c3cc(-c4cn[nH]c4)cc4ncccc34)n2)C[C@@H](C#N)C1 [Example 316, cis-3-(cyanomethyl)-3-{4-[7-(1H-pyrazol-4-yl)quinolin-5-yl]-2H-1,2,3-triazol-2-yl}cyclobutanecarbonitrile] | 8 nM | 122 nM | 48 nM | 2730 nM
N#CC[C@]1(n2ncc(-c3cc(-c4c[nH]nc4CO)cc4ncccc34)n2)C[C@H](C#N)C1 [Example 317, trans-3-(cyanomethyl)-3-(4-{7-[3-(hydroxymethyl)-1H-pyrazol-4-yl]quinolin-5-yl}-2H-1,2,3-triazol-2-yl)cyclobutanecarbonitrile] | 57 nM | 2830 nM | 838 nM | > 10000 nM
N#CC[C@]1(n2ncc(-c3cc(-c4c[nH]nc4CO)cc4ncccc34)n2)C[C@@H](C#N)C1 [Example 318, cis-3-(cyanomethyl)-3-(4-{7-[3-(hydroxymethyl)-1H-pyrazol-4-yl]quinolin-5-yl}-2H-1,2,3-triazol-2-yl)cyclobutanecarbonitrile] | 17 nM | 540 nM | 137 nM | 9270 nM
N#CC[C@]1(n2ncc(-c3cc(-c4cn[nH]c4N)cc4ncccc34)n2)C[C@H](C#N)C1 [Example 319, trans-3-{4-[7-(5-amino-1H-pyrazol-4-yl)quinolin-5-yl]-2H-1,2,3-triazol-2-yl}-3-(cyanomethyl)cyclobutanecarbonitrile] | 16 nM | 1250 nM | 530 nM | > 10000 nM
N#CC[C@]1(n2ncc(-c3cc(-c4cn[nH]c4N)cc4ncccc34)n2)C[C@@H](C#N)C1 [Example 320, cis-3-{4-[7-(5-amino-1H-pyrazol-4-yl)quinolin-5-yl]-2H-1,2,3-triazol-2-yl}-3-(cyanomethyl)cyclobutanecarbonitrile] | 5 nM | 256 nM | 77 nM | 8030 nM
C[C@]1(C#N)C[C@](CC#N)(n2ncc(-c3cc(-c4c[nH]nc4N)cc4ncccc34)n2)C1 [Example 321, trans-3-{4-[7-(3-amino-1H-pyrazol-4-yl)quinolin-5-yl]-2H-1,2,3-triazol-2-yl}-3-(cyanomethyl)-1-methylcyclobutanecarbonitrile] | 844 nM | > 10000 nM | 7690 nM | > 10000 nM
C[C@]1(C#N)C[C@@](CC#N)(n2ncc(-c3cc(-c4cn[nH]c4N)cc4ncccc34)n2)C1 [Example 322, cis-3-{4-[7-(5-amino-1H-pyrazol-4-yl)quinolin-5-yl]-2H-1,2,3-triazol-2-yl}-3-(cyanomethyl)-1-methylcyclobutanecarbonitrile] | 74 nM | 2590 nM | 959 nM | > 10000 nM
Cn1cc(-c2cc(-c3cnn(C4(CC#N)CN(S(C)(=O)=O)C4)n3)c3cccnc3c2)cn1 [Example 323, [3-{4-[7-(1-methyl-1H-pyrazol-4-yl)quinolin-5-yl]-2H-1,2,3-triazol-2-yl}-1-(methylsulfonyl)azetidin-3-yl]acetonitrile] | 69 nM | 2840 nM | 244 nM | > 10000 nM
Cn1cc(-c2cc(-c3cnn([C@]4(CC#N)C[C@@H](C#N)C4)n3)c3cccnc3c2)cn1 [Example 324, trans-3-(cyanomethyl)-3-{4-[7-(1-methyl-1H-pyrazol-4-yl)quinolin-5-yl]-2H-1,2,3-triazol-2-yl}cyclobutanecarbonitrile] | 30 nM | 1420 nM | 144 nM | 9930 nM
Cn1cc(-c2cc(-c3cnn(C4(CC#N)CC(C#N)C4)n3)c3cccnc3c2)cn1 (stereo not drawn) [Example 325, cis-3-(cyanomethyl)-3-{4-[7-(1-methyl-1H-pyrazol-4-yl)quinolin-5-yl]-2H-1,2,3-triazol-2-yl}cyclobutanecarbonitrile] | 11 nM | 319 nM | 32 nM | 2150 nM
N#CC[C@]1(n2ncc(-c3cc(-c4cnn(CCO)c4)cc4ncccc34)n2)C[C@H](C#N)C1 [Example 326, trans-3-(cyanomethyl)-3-(4-{7-[1-(2-hydroxyethyl)-1H-pyrazol-4-yl]quinolin-5-yl}-2H-1,2,3-triazol-2-yl)cyclobutanecarbonitrile] | 9 nM | 332 nM | 45 nM | 4170 nM
N#CC[C@]1(n2ncc(-c3cc(-c4cnn(CCO)c4)cc4ncccc34)n2)C[C@@H](C#N)C1 [Example 327, cis-3-(cyanomethyl)-3-(4-{7-[1-(2-hydroxyethyl)-1H-pyrazol-4-yl]quinolin-5-yl}-2H-1,2,3-triazol-2-yl)cyclobutanecarbonitrile] | 20 nM | 262 nM | 52 nM | 3290 nM
Cn1cc(-c2cc(-c3cnn(C4(CC#N)CC(C#N)C4)n3)c3cccnc3c2)c(CO)n1 (stereo not drawn) [Example 329, trans-3-(cyanomethyl)-3-(4-{7-[3-(hydroxymethyl)-1-methyl-1H-pyrazol-4-yl]quinolin-5-yl}-2H-1,2,3-triazol-2-yl)cyclobutanecarbonitrile] | 71 nM | 7000 nM | 666 nM | > 10000 nM
Cn1ncc(-c2cc(-c3cnn([C@]4(CC#N)C[C@@H](C#N)C4)n3)c3cccnc3c2)c1N [Example 330, trans-3-{4-[7-(5-amino-1-methyl-1H-pyrazol-4-yl)quinolin-5-yl]-2H-1,2,3-triazol-2-yl}-3-(cyanomethyl)cyclobutanecarbonitrile] | 143 nM | 7700 nM | 1620 nM | > 10000 nM
Cn1ncc(-c2cc(-c3cnn([C@]4(CC#N)C[C@H](C#N)C4)n3)c3cccnc3c2)c1N [Example 331, cis-3-{4-[7-(5-amino-1-methyl-1H-pyrazol-4-yl)quinolin-5-yl]-2H-1,2,3-triazol-2-yl}-3-(cyanomethyl)cyclobutanecarbonitrile] | 115 nM | 3700 nM | 740 nM | > 10000 nM
Cn1ncc(-c2cc(-c3cnn([C@]4(CC#N)C[C@@H](C#N)C4)n3)c3cccnc3c2)c1C(N)=O [Example 334, 4-(5-{2-[cis-3-cyano-1-(cyanomethyl)cyclobutyl]-2H-1,2,3-triazol-4-yl}quinolin-7-yl)-1-methyl-1H-pyrazole-5-carboxamide] | 736 nM | > 10000 nM | 4710 nM | > 10000 nM
Cc1nc(-c2cc(-c3cnn([C@]4(CC#N)C[C@H](C#N)C4)n3)c3cccnc3c2)c[nH]1 [Example 336, cis-3-(cyanomethyl)-3-{4-[7-(2-methyl-1H-imidazol-4-yl)quinolin-5-yl]-2H-1,2,3-triazol-2-yl}cyclobutanecarbonitrile] | 8 nM | 326 nM | 32 nM | 3580 nM
